Values after ≈ are worked out from the molar mass of the structure shown.

This is an account of results in patent US20020022742A1, “Salt forms of an HIV protease inhibitor” (priority 2000, published 2002).

Assay [1] addresses HIV protease (Human immunodeficiency virus type 1 group M subtype B, UniProt P04585). The experiment in a line: HIV protease inhibition (test only mentioned). Conditions: stated in words only, no value given. It is filed as biochemical.
Assay [2] deals with HIV-1 (RF). The experiment in a line: HIV RNA assay, microplate based compound evaluation in HIV-1 infected MT-2 cells. It is filed as cell-based. The following applies: Human immunodeficiency virus 1, MT2, 72 h; HIV-1 (RF) infected MT-2 cells, 3 days of culture; virus dilutions selected to result in this value (standardization of inoculum); read-out: IC90 (concentration of compound required to reduce the HIV RNA level by 90%).

For `CC(C)CN(C[C@@H](O)[C@H](Cc1ccccc1)NC(=O)[C@@H](NC(=O)CNCc1cccc(F)c1)C(C)(C)C)S(=O)(=O)c1ccc(N)cc1` [Compound A], in assay [1], the “HIV protease inhibitory activity” value was “potent HIV protease inhibitor”. As for `Nc1ccn([C@H]2CC[C@@H](CO)O2)c(=O)n1` [ddC, dideoxycytidine], the IC90 in assay [2] worked out at 0.2 µg/mL (≈ 0.947 µM).
